Key:
[1] = following nerve injury; cited from earlier work
[2] = rat, in vivo; cited from earlier work
[3] = test system: NMDA receptors; conditions: perfused, ventilated rat lungs; cited from earlier work
[4] = injected directly into the VNC prior to UVD; cited from earlier work
[5] = test system: neurons; conditions: cited from earlier work
[6] = cited from earlier work
[7] = test system: osteoblasts; conditions: cited from earlier work
[8] = multiple sclerosis patients; cited from earlier work
[9] = acute, sub-anesthetic doses, normal subjects; cited from earlier work
[10] = healthy subjects; cited from earlier work
[11] = cited from earlier work; remark: listed apart in the source
[12] = in vivo; cited from earlier work
[13] = cited from earlier work; remark: listed apart in the source
[14] = test system: GABA or AMPA receptors; conditions: cited from earlier work
[15] = test system: hippocampal slices; conditions: cited from earlier work
[16] = pre- or posttreatment, 20 mg/kg IP (von Euler, 1997); cited from earlier work
[17] = rat, brain microdialysis with in vivo recovery; cited from earlier work
[18] = test system: glutamate secreting tumors; conditions: 25 mg/kg IP; cited from earlier work
[19] = parallel treatment with memantine and 3-NP; cited from earlier work
[20] = test system: cortical cell cultures; conditions: cited from earlier work
[21] = moderate and severe Alzheimer's disease; cited from earlier work
[22] = test system: L- and N type voltage-activated calcium channels, Na+ channels; conditions: cited from earlier work
[23] = target: NR2A of the NMDA receptor (Homo sapiens, UniProt Q05586+Q12879); conditions: cited from earlier work
[24] = test system: neuronal ganglion cell; conditions: administered 4 hours after NMDA neurotoxicity; cited from earlier work
[25] = animals studies; cited from earlier work
[26] = Tinnitus patient treated with chronic oral memantine; format: in vivo, human; conditions: first patient in the USA, category I tinnitus, chronic oral 10 mg BID
From the text: The efficacy of current therapy for tinnitus is controversial but includes devices that mask tinnitus and TRT (tinnitus retraining therapy) which is a technique utilizing white noise for a period of time to assist the patient to habituate to their tinnitus. […] We postulate that the administration of memantine would attenuate the neurotoxicity mechanisms of cochlear disorders and tinnitus, and also attenuate any abnormal neuronal plasticity in the temporal-parietal association cortex resulting in clinical efficacy for the treatment of tinnitus.

[27] = test system: inner hair cell afferents; conditions: animal models; cited from earlier work
[28] = one patient; metabolic deficits by PET not totally reversed; cited from earlier work
[29] = rats with experimental acute liver failure; cited from earlier work
[30] = test system: tumor cells including lung, rhabdomyosarcoma, medulloblastoma, and thyroid adenocarcinoma; conditions: cited from earlier work
[31] = EAE (Wallstrom, 1996); cited from earlier work
[32] = test system: BDNF mRNA; conditions: rat limbic system; cited from earlier work
[33] = cited from earlier work; remark: listed apart in the source
[34] = rat, in vivo; cited from earlier work; remark: listed apart in the source
[35] = animal studies; cited from earlier work
[36] = lesions of the entorhinal cortex; cited from earlier work
[37] = test system: NR2C and NR2D subunits; conditions: cited from earlier work
[38] = test system: D2, AMPA, kainate, alpha 1, alpha 2, and 5-HT re-uptake; conditions: alpha 1, alpha 2, 5-HT re-uptake; cited from earlier work
[39] = up to 2 hours after induction of hypoxia/ischemia, immature and adult rats; cited from earlier work
[40] = in vivo; cited from earlier work; remark: listed apart in the source
[41] = target: NR1A/2B (Homo sapiens, UniProt Q05586+Q13224); conditions: cited from earlier work
[42] = in vivo; cited from earlier work; remark: listed apart in the source
[43] = test system: NMDA receptor; conditions: cited from earlier work

Sequence of NR2A of the NMDA receptor (Q12879 23-1464, other chains not shown): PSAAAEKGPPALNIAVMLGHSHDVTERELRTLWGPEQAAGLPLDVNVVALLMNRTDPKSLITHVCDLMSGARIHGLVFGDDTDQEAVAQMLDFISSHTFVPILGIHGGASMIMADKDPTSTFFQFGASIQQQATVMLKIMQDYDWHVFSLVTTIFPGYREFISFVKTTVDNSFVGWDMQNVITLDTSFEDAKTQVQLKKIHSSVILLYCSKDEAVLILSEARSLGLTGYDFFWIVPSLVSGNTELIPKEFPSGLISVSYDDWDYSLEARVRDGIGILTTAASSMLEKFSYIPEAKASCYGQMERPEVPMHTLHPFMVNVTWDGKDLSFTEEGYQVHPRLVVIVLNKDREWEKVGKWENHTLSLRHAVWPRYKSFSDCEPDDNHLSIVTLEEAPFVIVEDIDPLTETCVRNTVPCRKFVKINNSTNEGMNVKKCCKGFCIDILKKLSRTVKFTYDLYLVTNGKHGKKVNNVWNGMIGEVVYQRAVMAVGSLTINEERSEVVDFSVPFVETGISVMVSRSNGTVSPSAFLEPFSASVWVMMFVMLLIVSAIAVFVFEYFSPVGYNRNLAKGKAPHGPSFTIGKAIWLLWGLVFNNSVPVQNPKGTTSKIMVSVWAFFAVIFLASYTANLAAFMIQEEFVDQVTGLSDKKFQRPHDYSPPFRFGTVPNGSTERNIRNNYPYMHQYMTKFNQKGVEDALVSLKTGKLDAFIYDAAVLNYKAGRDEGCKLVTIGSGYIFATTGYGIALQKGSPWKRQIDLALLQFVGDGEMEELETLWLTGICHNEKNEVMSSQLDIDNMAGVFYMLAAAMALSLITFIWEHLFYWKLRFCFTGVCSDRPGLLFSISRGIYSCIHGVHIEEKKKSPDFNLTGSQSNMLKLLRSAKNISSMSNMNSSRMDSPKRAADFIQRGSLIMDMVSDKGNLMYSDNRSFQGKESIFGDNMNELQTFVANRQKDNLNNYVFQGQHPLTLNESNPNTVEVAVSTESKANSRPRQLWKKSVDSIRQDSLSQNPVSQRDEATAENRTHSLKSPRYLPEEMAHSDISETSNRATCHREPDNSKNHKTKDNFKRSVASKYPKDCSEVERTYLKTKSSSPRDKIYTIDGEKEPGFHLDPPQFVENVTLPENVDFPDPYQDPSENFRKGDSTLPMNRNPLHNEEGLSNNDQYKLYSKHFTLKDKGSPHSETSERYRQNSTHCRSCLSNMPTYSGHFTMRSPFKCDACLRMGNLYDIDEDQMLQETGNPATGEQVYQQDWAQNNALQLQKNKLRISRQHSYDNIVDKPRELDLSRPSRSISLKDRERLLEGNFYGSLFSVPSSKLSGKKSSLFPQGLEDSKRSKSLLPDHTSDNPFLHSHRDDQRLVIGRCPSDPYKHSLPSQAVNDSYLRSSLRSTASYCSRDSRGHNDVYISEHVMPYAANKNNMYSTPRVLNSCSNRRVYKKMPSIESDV
Sequence of NR1A/2B (Q13224 27-1484, other chains not shown): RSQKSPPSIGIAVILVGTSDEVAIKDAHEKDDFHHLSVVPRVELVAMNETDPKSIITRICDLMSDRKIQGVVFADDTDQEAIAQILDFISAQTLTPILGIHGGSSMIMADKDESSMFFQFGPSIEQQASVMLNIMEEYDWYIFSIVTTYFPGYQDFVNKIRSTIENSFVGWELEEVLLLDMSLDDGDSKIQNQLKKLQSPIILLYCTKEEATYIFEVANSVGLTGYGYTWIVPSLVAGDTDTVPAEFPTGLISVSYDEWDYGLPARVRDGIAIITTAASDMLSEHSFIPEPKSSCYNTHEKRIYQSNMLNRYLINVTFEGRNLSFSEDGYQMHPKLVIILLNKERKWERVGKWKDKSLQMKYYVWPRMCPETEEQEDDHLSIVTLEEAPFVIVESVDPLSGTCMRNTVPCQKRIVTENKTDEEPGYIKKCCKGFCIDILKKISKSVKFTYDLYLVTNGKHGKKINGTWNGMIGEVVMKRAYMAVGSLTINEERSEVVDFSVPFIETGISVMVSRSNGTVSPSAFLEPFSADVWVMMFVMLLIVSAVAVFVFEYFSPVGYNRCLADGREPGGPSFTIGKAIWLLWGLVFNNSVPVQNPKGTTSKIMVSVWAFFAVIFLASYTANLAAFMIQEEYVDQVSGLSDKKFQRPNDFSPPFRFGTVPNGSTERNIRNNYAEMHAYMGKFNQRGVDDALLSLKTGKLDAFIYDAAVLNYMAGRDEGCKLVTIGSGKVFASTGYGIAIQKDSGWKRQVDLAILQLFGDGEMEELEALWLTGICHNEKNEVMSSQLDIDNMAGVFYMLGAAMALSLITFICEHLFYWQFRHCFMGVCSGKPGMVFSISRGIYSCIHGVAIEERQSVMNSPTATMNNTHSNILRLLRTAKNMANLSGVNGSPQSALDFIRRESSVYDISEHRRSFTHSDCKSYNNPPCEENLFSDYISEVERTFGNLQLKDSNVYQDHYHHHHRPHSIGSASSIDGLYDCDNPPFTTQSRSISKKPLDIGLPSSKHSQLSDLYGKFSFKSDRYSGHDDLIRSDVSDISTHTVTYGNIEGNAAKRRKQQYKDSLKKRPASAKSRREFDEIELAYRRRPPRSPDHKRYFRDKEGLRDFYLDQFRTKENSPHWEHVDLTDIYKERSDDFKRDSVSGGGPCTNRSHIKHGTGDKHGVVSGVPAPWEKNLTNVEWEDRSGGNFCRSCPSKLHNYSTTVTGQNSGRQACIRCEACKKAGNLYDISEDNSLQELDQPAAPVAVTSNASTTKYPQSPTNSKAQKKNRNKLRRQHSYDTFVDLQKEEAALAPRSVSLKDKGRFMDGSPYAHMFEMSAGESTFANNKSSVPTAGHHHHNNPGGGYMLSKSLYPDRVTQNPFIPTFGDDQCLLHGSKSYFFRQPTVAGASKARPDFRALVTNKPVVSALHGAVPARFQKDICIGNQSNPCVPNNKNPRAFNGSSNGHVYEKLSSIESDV

C[C@]12N[C@H](Cc3ccccc31)c1ccccc12 [MK-801]
motorneurone death [1]: reduced motorneurone death | cortical spreading after infarction [2]: able to inhibit cortical spreading | hyperexcitability after infarction [2]: unable to reverse the hyperexcitability | pulmonary injury by NMDA receptor activation [3]: prevented | severity of the vestibular syndrome (SON, YHT) [4]: reduced the severity of the vestibular syndrome | neuronal loss by neurotoxic concentrations of glutamate [5]: attenuated the neuronal loss | increased airway perfusion pressure produced by NMDA ([6]; NMDA): abolished | acute elevation in airway perfusion pressure by capsaicin ([6]; capsaicin): attenuated in both magnitude and duration | inward currents in response to NMDA agonist stimulation [7]: significant decrease in inward currents

NCC1(CC(=O)O)CCCCC1 [gabapentin]
treatment of APN [8]: efficacy

CNC1(c2ccccc2Cl)CCCCC1=O (stereo not shown) [ketamine]
memory [9]: delayed memory recall and decreases in verbal and nonverbal memory | smooth pursuit of eye movements [10]: deficits in smooth pursuit of eye movements

CC12CC3CC(C)(C1)CC(N)(C3)C2.Cl [memantine, 1-amino-3,5-dimethyl-adamantane hydrochloride]
drug interaction with AchE (acetylcholinesterase inhibitors) ([11]; combined with AchE inhibitors): no adverse drug interaction | adverse events ([11]; dose-related): nausea, dizziness, and restlessness | hepatic toxicity ([11]; human, in vivo): minimal hepatic toxicity | patients with headache as adverse event ([11]; patients who do not suffer from migraine, mild, usually transitory, dose related): up to 10% | efficacy as an anti-convulsant or in epilepsy [12]: minimal efficacy | hippocampal damage, convulsions and cell death induced by ICV QUIN ([13]; in vivo): prevents hippocampal damage, convulsions and cell death | memory deficits by chronic ICV infusion of QUIN ([13]; simultaneous infusion of memantine): blocked | effect on GABA or AMPA receptors [14]: no effect | treatment of APN [8]: efficacy | effect on LTP in hippocampal slices ([15]; 6-10 μM): do not attenuate LTP | increase of the CA1 pyramidal cell spike ([15]; in vitro): 100% | synaptic functioning after removal of Mg++ ([15]; relevant human brain concentrations (1-μM)): normalized synaptic functioning | neurological or morphological outcome [16]: failed to attenuate | free brain concentrations lower [17]: 20-30% | decrease of tumor volume [18]: 25% | tumor expansion facilitated by glutamate secretion [18]: blocked | enhanced neuronal density drop-out in the striatum [19]: 26% | reduction in volume in the striatum [19]: 11.5% | apoptosis induced by gp120 [20]: prevention of apoptosis | rate of cognitive decline [21]: efficacy in decreasing the rate of cognitive decline | antagonism at L- and N type voltage-activated calcium channels, Na+ channels [22]: weak antagonist | effects at NR2A [23]: weak effects | neuronal ganglion cell death [24]: prevention of neuronal ganglion cell death | induction of HSP, neuronal vacuolization and necrosis [25]: No induction of HSP (heat shock protein) or neuronal vacuolization and necrosis | response of tinnitus [26]: successfully treated | NMDA stimulated activity of inner hair cell afferents [27]: selectively inhibit | cognitive effects in alcoholic dementia [28]: reversed cognitive effects | neurological status [29]: significant improvement | growth of brain and systemic glutamate secreting tumors ([30]; in vitro): slow the growth | in vitro proliferation of tumor cells ([30]; lung, rhabdomyosarcoma, medulloblastoma, thyroid adenocarcinoma): decrease in vitro proliferation | levels at which in vitro proliferation was decreased ([30]; unobtainable at therapeutic human doses): 100 μM/ml | effect on CNS inflammation, IFN-γ, lymphocytic proliferation, systemic immunity [31]: failed to have any effect | BDNF mRNA levels [32]: increased BDNF mRNA levels | TTP (time-to-peak concentration) ([33]; after oral intake): 6 to 8 h | decrease of CSF (cerebrospinal fluid) concentration ([33]; due to albumin binding): 20-50% | CSF concentrations lower (CSF sampling) ([33]; human subjects): 30-40% | serum levels ([33]; humans, 20 mg per day): 0.5 to 1.0 µM | blood brain barrier penetration ([33]; in vivo): easily penetrates the blood brain barrier | plasma clearance half-life (t1/2) ([33]; in vivo): 60 to 100 h | protein binding ([33]; in vivo): 42-45% | time to steady-state plasma levels ([33]; in vivo): approximately 21 days | absorption from the gastrointestinal tract ([33]; oral): completely absorbed | plasma levels ([33]; patients treated with 10-30 mg per day): 0.4 to 1.0 µM | lesions of the NBM produced by mitochondrial toxins (3-NP) [34]: inhibited | striatal lesions by malonate [34]: significantly attenuated | eliminating symptoms of drug withdrawal and addiction [35]: conflicting and usually negative | time to normalized learning [36]: ≤ 8 days | time to reversal of learning impairment [36]: ≤ 3 days | block of NR2C and NR2D subunits [37]: preferentially blocks | concentrations at which memantine interacts with multiple receptors [38]: greater than 100 μM | infarct size [39]: significantly reduce infarct size | placental penetration [40]: good placental penetration | teratogenesis [40]: minimal teratogenesis | toxicity to the fetus [40]: non-toxic properties to the fetus | potency at NR1A/2B [41]: intermediate potency | therapeutic concentration that produces efficacy in Parkinson's disease [42]: less than 2 μM | NMDA channels left unblocked [43]: 20% | levels at which action is specific for antagonism of the NMDA receptor ([43]; does not affect other ligand-gated or voltage-gated channels): 1 to 10 µM

Reference: patent US20040102525A1, “Compositions and methods of treating neurological disease and providing neuroprotection” (priority 2002, published 2004)
